Measurements taken from the NIST ThermoML archive (doi:10.1021/je7001368).

Assay: mn = molality of the nth substance listed, in mol/kg
Conditions: 101 kPa, Liquid

O=C([O-])CC(O)(CC(=O)[O-])C(=O)[O-].[K+].[K+].[K+] [potassium citrate] + O
Conditions | mass density [kg/m3] | speed of sound [m/s]
288.15 K, m1 = 0.0185 | 1002.99 | 1470.8
288.15 K, m1 = 0.0304 | 1005.44 | 1473.4
288.15 K, m1 = 0.031 | 1005.55 | 1473.5
288.15 K, m1 = 0.0558 | 1010.5 | 1478.6
288.15 K, m1 = 0.0899 | 1017.35 | 1485.7
288.15 K, m1 = 0.1258 | 1024.33 | 1493.8
288.15 K, m1 = 0.1931 | 1037.25 | 1506.5
288.15 K, m1 = 0.2653 | 1050.77 | 1519.9
288.15 K, m1 = 0.3412 | 1064.51 | 1534.3
288.15 K, m1 = 0.4565 | 1084.71 | 1556.7
288.15 K, m1 = 0.5796 | 1105.19 | 1578.4
288.15 K, m1 = 0.7446 | 1131.73 | 1608.1
293.15 K, m1 = 0.0185 | 1002.05 | 1486.7
293.15 K, m1 = 0.0304 | 1004.5 | 1489.1
293.15 K, m1 = 0.031 | 1004.61 | 1489.3
293.15 K, m1 = 0.0558 | 1009.51 | 1494.3
293.15 K, m1 = 0.0899 | 1016.3 | 1501.1
293.15 K, m1 = 0.1258 | 1023.23 | 1509
293.15 K, m1 = 0.1931 | 1036.06 | 1521.2
293.15 K, m1 = 0.2653 | 1049.48 | 1534.2
293.15 K, m1 = 0.3412 | 1063.13 | 1548.1
293.15 K, m1 = 0.4565 | 1083.21 | 1569.7
293.15 K, m1 = 0.5796 | 1103.58 | 1590.6
293.15 K, m1 = 0.7446 | 1129.91 | 1619.4
298.15 K, m1 = 0.0185 | 1000.87 | 1500.8
298.15 K, m1 = 0.0304 | 1003.29 | 1503.2
298.15 K, m1 = 0.031 | 1003.4 | 1503.3
298.15 K, m1 = 0.0558 | 1008.27 | 1508.1
298.15 K, m1 = 0.0899 | 1015.02 | 1514.7
298.15 K, m1 = 0.1258 | 1021.9 | 1522.4
298.15 K, m1 = 0.1931 | 1034.64 | 1534.3
298.15 K, m1 = 0.2653 | 1047.99 | 1546.8
298.15 K, m1 = 0.3412 | 1061.56 | 1560.2
298.15 K, m1 = 0.4565 | 1081.54 | 1581.2
298.15 K, m1 = 0.5796 | 1101.81 | 1601.3
298.15 K, m1 = 0.7446 | 1128.11 | 1629.2
303.15 K, m1 = 0.0185 | 999.449 | 1513
303.15 K, m1 = 0.0304 | 1001.86 | 1515.4
303.15 K, m1 = 0.031 | 1001.97 | 1515.5
303.15 K, m1 = 0.0558 | 1006.81 | 1520.2
303.15 K, m1 = 0.0899 | 1013.52 | 1526.6
303.15 K, m1 = 0.1258 | 1020.35 | 1534.1
303.15 K, m1 = 0.1931 | 1033.03 | 1545.6
303.15 K, m1 = 0.2653 | 1046.31 | 1557.7
303.15 K, m1 = 0.3412 | 1059.82 | 1570.7
303.15 K, m1 = 0.4565 | 1079.71 | 1591.1
303.15 K, m1 = 0.5796 | 1099.9 | 1610.6
303.15 K, m1 = 0.7446 | 1126.1 | 1637.7
308.15 K, m1 = 0.0185 | 997.814 | 1523.6
308.15 K, m1 = 0.0304 | 1000.21 | 1525.9
308.15 K, m1 = 0.031 | 1000.32 | 1526.1
308.15 K, m1 = 0.0558 | 1005.14 | 1530.6
308.15 K, m1 = 0.0899 | 1011.81 | 1536.8
308.15 K, m1 = 0.1258 | 1018.62 | 1544.2
308.15 K, m1 = 0.1931 | 1031.24 | 1555.3
308.15 K, m1 = 0.2653 | 1044.46 | 1567.1
308.15 K, m1 = 0.3412 | 1057.91 | 1579.7
308.15 K, m1 = 0.4565 | 1077.72 | 1599.7
308.15 K, m1 = 0.5796 | 1097.85 | 1618.5
308.15 K, m1 = 0.7446 | 1123.97 | 1644.9
313.15 K, m1 = 0.0185 | 995.982 | 1532.7
313.15 K, m1 = 0.0304 | 998.37 | 1534.9
313.15 K, m1 = 0.031 | 998.478 | 1535
313.15 K, m1 = 0.0558 | 1003.28 | 1539.5
313.15 K, m1 = 0.0899 | 1009.92 | 1545.5
313.15 K, m1 = 0.1258 | 1016.7 | 1552.8
313.15 K, m1 = 0.1931 | 1029.28 | 1563.6
313.15 K, m1 = 0.2653 | 1042.44 | 1575
313.15 K, m1 = 0.3412 | 1055.86 | 1587.3
313.15 K, m1 = 0.4565 | 1075.6 | 1606.9
313.15 K, m1 = 0.5796 | 1095.67 | 1625.1
313.15 K, m1 = 0.7446 | 1121.72 | 1650.8
